Literature values in US20240238319A1, “CEREAL-BASED COMPOSITIONS WITH A MIX OF GALACTO-OLIGOSACCHARIDES/FRUCTO- OLIGOSACCHARIDES AND USES THEREOF FOR IMPROVING IRON ABSORPTION” (COMPAGNIE GERVAIS DANONE, priority 2021, published 2024).

Conditions: when providing at least 80% of the WHO recommended dietary allowance

[Fe] [iron]
increased risk of diarrhea: 15%
